Results from ChEMBL document CHEMBL1914447, “Novel orally active antimalarial thiazoles” (J Med Chem, 2011).
Values after ≈ are worked out from the molar mass of the structure shown.

Experiments:
[1] = Lipophilicity, log D of the compound by gradient HPLC at pH 7.4; type: physicochemical; conditions: buffer
Liver microsomes [2] = experiment: Metabolic stability in human liver microsomes at 1 uM by LC-MS analysis; type: ADME, Microsome
[3] = Lipophilicity, log D of the compound by gradient HPLC at pH 3.0; type: physicochemical; conditions: buffer
Plasmodium falciparum [4] = experiment: microbe, parasite or virus in culture; conditions: NF54
[5] = Kinetic solubility of the compound by nephelometry at pH 6.5; type: physicochemical; conditions: buffer, read-out: Kinetic_solubility
Liver microsomes [6] = experiment: Metabolic stability in rat liver microsomes at 1 uM by LC-MS analysis; type: ADME, Microsome
[7] = Kinetic solubility of the compound by nephelometry at pH 2.0; type: physicochemical; conditions: buffer, read-out: Kinetic_solubility
Liver = experiment: Metabolic stability in mouse liver microsomes at 1 uM by LC-MS analysis; type: ADME, Microsome
Plasmodium falciparum [8] = experiment: microbe, parasite or virus in culture; conditions: K1
Plasmodium berghei [9] = experiment: Antimalarial activity against GFP-transfected Plasmodium berghei ANKA infected in NMRI mouse assessed as mean survival time at 10 mg/kg, po administered as single dose; type: functional
Plasmodium berghei [10] = experiment: Antimalarial activity against GFP-transfected Plasmodium berghei ANKA infected in NMRI mouse assessed as reduction in parasitemia at 30 mg/kg, po administered as single dose after 72 hrs by flow cytometry; type: functional; set-up: scale not given: the % may be the effect or the level left
Plasmodium berghei [11] = experiment: Antimalarial activity against GFP-transfected Plasmodium berghei ANKA infected in po dosed NMRI mouse assessed as reduction in parasitemia administered as single dose after 72 hrs by flow cytometry; type: functional
Plasmodium berghei [12] = experiment: Antimalarial activity against GFP-transfected Plasmodium berghei ANKA infected in NMRI mouse assessed as reduction in parasitemia at 10 mg/kg, po administered as single dose after 72 hrs by flow cytometry; type: functional; set-up: scale not given: the % may be the effect or the level left
Plasmodium berghei [13] = experiment: Antimalarial activity against GFP-transfected Plasmodium berghei ANKA infected in NMRI mouse assessed as mean survival time at 100 mg/kg, po administered as single dose; type: functional
Plasmodium berghei [14] = experiment: Antimalarial activity against GFP-transfected Plasmodium berghei ANKA infected in NMRI mouse assessed as reduction in parasitemia at 100 mg/kg, po administered as single dose after 72 hrs by flow cytometry; type: functional; set-up: scale not given: the % may be the effect or the level left
Plasmodium berghei [15] = experiment: Antimalarial activity against GFP-transfected Plasmodium berghei ANKA infected in NMRI mouse assessed as mean survival time at 30 mg/kg, po administered as single dose; type: functional

CC(C)(C)c1cc(C(=O)Nc2cccnc2)n(Cc2ccccc2)n1
chromatographic logD [1]: 3.8 | Stability (Liver microsomes [2]): Unstable | chromatographic logD [3]: 3.5 | IC50 (Plasmodium falciparum [4]): 4.99 µM | solubility kinetic [5]: 6.3 µg/mL (≈ 18.8 µM) | Stability (Liver microsomes [6]): Unstable | solubility kinetic [7]: > 100 µg/mL | Stability (Liver): Unstable | IC50 (Plasmodium falciparum [8]): 6.45 µM

CC(C)(C)c1cc(C(=O)Nc2ccncc2)n(Cc2ccccc2)n1
chromatographic logD [1]: 4 | Stability (Liver microsomes [2]): Unstable | chromatographic logD [3]: 2.6 | IC50 (Plasmodium falciparum [4]): 3.88 µM | solubility kinetic [5]: 6.3 µg/mL (≈ 18.8 µM) | Stability (Liver microsomes [6]): Unstable | solubility kinetic [7]: > 100 µg/mL | Stability (Liver): Unstable | IC50 (Plasmodium falciparum [8]): 7.05 µM

CC(C)(C)c1cc(C(=O)Nc2ccccn2)n(Cc2ccccc2)n1
chromatographic logD [1]: 4.5 | Stability (Liver microsomes [2]): Unstable | chromatographic logD [3]: 4.5 | IC50 (Plasmodium falciparum [4]): 10.5 µM | solubility kinetic [5]: 6.3 µg/mL (≈ 18.8 µM) | Stability (Liver microsomes [6]): Unstable | solubility kinetic [7]: 25 µg/mL (≈ 74.8 µM) | Stability (Liver): Unstable | IC50 (Plasmodium falciparum [8]): 10.2 µM

CC(C)(C)c1cc(C(=O)Nc2ccccc2)n(Cc2ccccc2)n1
chromatographic logD [1]: 4.7 | Stability (Liver microsomes [2]): Unstable | chromatographic logD [3]: 4.7 | IC50 (Plasmodium falciparum [4]): 7.92 µM | solubility kinetic [5]: 1.6 µg/mL (≈ 4.8 µM) | Stability (Liver microsomes [6]): Unstable | solubility kinetic [7]: 1.6 µg/mL (≈ 4.8 µM) | Stability (Liver): Unstable | IC50 (Plasmodium falciparum [8]): 11 µM

Cc1csc(NC(=O)c2cc(C(C)(C)C)nn2Cc2ccccc2)n1
chromatographic logD [1]: 4.7 | Stability (Liver microsomes [2]): Unstable | chromatographic logD [3]: 4.7 | IC50 (Plasmodium falciparum [4]): 4.12 µM | solubility kinetic [5]: < 1.6 µg/mL | Stability (Liver microsomes [6]): Unstable | solubility kinetic [7]: < 1.6 µg/mL | Stability (Liver): Unstable | IC50 (Plasmodium falciparum [8]): 4.94 µM

CC(C)(C)c1cc(C(=O)Nc2cccc(CN)c2)n(Cc2ccccc2)n1
chromatographic logD [1]: 2.9 | Stability (Liver microsomes [2]): Stable | chromatographic logD [3]: 2.2 | IC50 (Plasmodium falciparum [4]): 2.15 µM | solubility kinetic [5]: 25 µg/mL (≈ 69 µM) | Stability (Liver microsomes [6]): Stable | solubility kinetic [7]: > 100 µg/mL | Stability (Liver): Stable | IC50 (Plasmodium falciparum [8]): 1.47 µM

CC(=O)NCc1csc(NC(=O)c2cc(C(C)(C)C)nn2Cc2ccccc2)n1
chromatographic logD [1]: 3.3 | Stability (Liver microsomes [2]): Unstable | chromatographic logD [3]: 3.3 | IC50 (Plasmodium falciparum [4]): 6.24 µM | solubility kinetic [5]: 12.5 µg/mL (≈ 30.4 µM) | Stability (Liver microsomes [6]): Unstable | solubility kinetic [7]: 12.5 µg/mL (≈ 30.4 µM) | Stability (Liver): Unstable | IC50 (Plasmodium falciparum [8]): 4.27 µM

CC(C)(C)c1cc(C(=O)Nc2nc(CNS(C)(=O)=O)cs2)n(Cc2ccccc2)n1
chromatographic logD [1]: 3.7 | Stability (Liver microsomes [2]): Unstable | chromatographic logD [3]: 3.7 | IC50 (Plasmodium falciparum [4]): 4.68 µM | solubility kinetic [5]: 3.1 µg/mL (≈ 6.93 µM) | Stability (Liver microsomes [6]): Unstable | solubility kinetic [7]: 3.1 µg/mL (≈ 6.93 µM) | Stability (Liver): Unstable | IC50 (Plasmodium falciparum [8]): 2.93 µM

CN(C)Cc1csc(NC(=O)c2cc(C(C)(C)C)nn2Cc2ccccc2)n1
chromatographic logD [1]: 4.2 | Stability (Liver microsomes [2]): Unstable | chromatographic logD [3]: 2.6 | IC50 (Plasmodium falciparum [4]): 2.41 µM | solubility kinetic [5]: 25 µg/mL (≈ 62.9 µM) | Stability (Liver microsomes [6]): Unstable | solubility kinetic [7]: > 100 µg/mL | Stability (Liver): Unstable | IC50 (Plasmodium falciparum [8]): 1.48 µM

CNCc1csc(NC(=O)c2cc(C(C)(C)C)nn2Cc2ccccc2)n1
chromatographic logD [1]: 3.8 | Stability (Liver microsomes [2]): Stable | chromatographic logD [3]: 2.6 | IC50 (Plasmodium falciparum [4]): 0.16 µM | solubility kinetic [5]: 12.5 µg/mL (≈ 32.6 µM) | Stability (Liver microsomes [6]): Stable | solubility kinetic [7]: 25 µg/mL (≈ 65.2 µM) | Stability (Liver): Stable | IC50 (Plasmodium falciparum [8]): 0.19 µM

CC(C)(C)c1cc(C(=O)Nc2nc(CO)cs2)n(Cc2ccccc2)n1
chromatographic logD [1]: 3.4 | Stability (Liver microsomes [2]): Unstable | chromatographic logD [3]: 3.5 | IC50 (Plasmodium falciparum [4]): 0.71 µM | solubility kinetic [5]: 3.1 µg/mL (≈ 8.37 µM) | Stability (Liver microsomes [6]): Unstable | solubility kinetic [7]: 12.5 µg/mL (≈ 33.7 µM) | Stability (Liver): Unstable | IC50 (Plasmodium falciparum [8]): 0.67 µM

Cn1nc(C(C)(C)C)cc1C(=O)Nc1nc(CN)cs1
chromatographic logD [1]: 1.6 | chromatographic logD [3]: 1.2 | IC50 (Plasmodium falciparum [4]): > 34.1 µM | solubility kinetic [5]: 50 µg/mL (≈ 170 µM) | solubility kinetic [7]: > 100 µg/mL | IC50 (Plasmodium falciparum [8]): 34.1 µM

NCc1csc(NC(=O)c2ccn[nH]2)n1
chromatographic logD [1]: 0.1 | chromatographic logD [3]: 0 | IC50 (Plasmodium falciparum [4]): > 44.8 µM | solubility kinetic [5]: > 100 µg/mL | solubility kinetic [7]: > 100 µg/mL | IC50 (Plasmodium falciparum [8]): > 44.8 µM

NCc1csc(NC(=O)c2cc3ccccc3o2)n1
chromatographic logD [1]: 1.5 | chromatographic logD [3]: 1.1 | IC50 (Plasmodium falciparum [4]): > 36.6 µM | solubility kinetic [5]: 50 µg/mL (≈ 183 µM) | solubility kinetic [7]: > 100 µg/mL | IC50 (Plasmodium falciparum [8]): 36.6 µM

NCc1csc(NC(=O)c2cc3ccccc3n2Cc2ccccc2)n1
chromatographic logD [1]: 3 | chromatographic logD [3]: 2.4 | IC50 (Plasmodium falciparum [4]): 10.3 µM | solubility kinetic [5]: 1.6 µg/mL (≈ 4.41 µM) | solubility kinetic [7]: 25 µg/mL (≈ 69 µM) | IC50 (Plasmodium falciparum [8]): 6.98 µM

COc1ccc(C(=O)Nc2nc(CN)cs2)cc1
chromatographic logD [1]: 1.2 | chromatographic logD [3]: 0.9 | IC50 (Plasmodium falciparum [4]): 13.1 µM | solubility kinetic [5]: 25 µg/mL (≈ 94.9 µM) | solubility kinetic [7]: 50 µg/mL (≈ 190 µM) | IC50 (Plasmodium falciparum [8]): 11.1 µM

NCc1csc(NC(=O)c2cccnn2)n1
chromatographic logD [1]: 0.2 | chromatographic logD [3]: 0 | IC50 (Plasmodium falciparum [4]): > 42.5 µM | solubility kinetic [5]: 50 µg/mL (≈ 213 µM) | solubility kinetic [7]: > 100 µg/mL | IC50 (Plasmodium falciparum [8]): 42.5 µM

NCc1csc(NC(=O)c2ccon2)n1
chromatographic logD [1]: -0.1 | chromatographic logD [3]: 0 | IC50 (Plasmodium falciparum [4]): > 44.6 µM | solubility kinetic [5]: 50 µg/mL (≈ 223 µM) | solubility kinetic [7]: 50 µg/mL (≈ 223 µM) | IC50 (Plasmodium falciparum [8]): > 44.6 µM

NCc1csc(NC(=O)c2cc3ccccc3[nH]2)n1
chromatographic logD [1]: 1.4 | chromatographic logD [3]: 1.1 | IC50 (Plasmodium falciparum [4]): 30.4 µM | solubility kinetic [5]: 25 µg/mL (≈ 91.8 µM) | solubility kinetic [7]: > 100 µg/mL | IC50 (Plasmodium falciparum [8]): 22.2 µM

NCc1csc(NC(=O)c2ccccc2)n1
chromatographic logD [1]: 1 | chromatographic logD [3]: 0.7 | IC50 (Plasmodium falciparum [4]): > 42.9 µM | solubility kinetic [5]: 25 µg/mL (≈ 107 µM) | solubility kinetic [7]: > 100 µg/mL | IC50 (Plasmodium falciparum [8]): 42.9 µM

NCc1csc(NC(=O)c2ccc(Cl)cc2)n1
chromatographic logD [1]: 1.6 | chromatographic logD [3]: 1.2 | IC50 (Plasmodium falciparum [4]): > 37.5 µM | solubility kinetic [5]: 25 µg/mL (≈ 93.4 µM) | solubility kinetic [7]: > 100 µg/mL | IC50 (Plasmodium falciparum [8]): 37.5 µM

NCc1csc(NC(=O)c2ccccn2)n1
chromatographic logD [1]: 0.7 | chromatographic logD [3]: 0.3 | IC50 (Plasmodium falciparum [4]): > 42.7 µM | solubility kinetic [5]: > 100 µg/mL | solubility kinetic [7]: > 100 µg/mL | IC50 (Plasmodium falciparum [8]): > 42.7 µM

NCc1csc(NC(=O)c2ncccn2)n1
chromatographic logD [1]: -0.1 | chromatographic logD [3]: -0.2 | IC50 (Plasmodium falciparum [4]): > 42.5 µM | solubility kinetic [5]: > 100 µg/mL | solubility kinetic [7]: > 100 µg/mL | IC50 (Plasmodium falciparum [8]): > 42.5 µM

NCc1csc(NC(=O)c2cnn[nH]2)n1
chromatographic logD [1]: -0.3 | chromatographic logD [3]: -0.2 | IC50 (Plasmodium falciparum [4]): > 44.6 µM | solubility kinetic [5]: > 100 µg/mL | solubility kinetic [7]: > 100 µg/mL | IC50 (Plasmodium falciparum [8]): > 44.6 µM

NCc1csc(NC(=O)c2cnnn2Cc2ccccc2)n1
chromatographic logD [1]: 1.6 | chromatographic logD [3]: 1.3 | IC50 (Plasmodium falciparum [4]): > 3.18 µM | solubility kinetic [5]: 50 µg/mL (≈ 159 µM) | solubility kinetic [7]: > 100 µg/mL | IC50 (Plasmodium falciparum [8]): > 3.18 µM

NCc1csc(NC(=O)c2cn(Cc3ccccc3)nn2)n1
chromatographic logD [1]: 1.4 | chromatographic logD [3]: 1.1 | IC50 (Plasmodium falciparum [4]): > 3.18 µM | solubility kinetic [5]: 25 µg/mL (≈ 79.5 µM) | solubility kinetic [7]: 50 µg/mL (≈ 159 µM) | IC50 (Plasmodium falciparum [8]): > 3.18 µM

C[C@H]1[C@H](OC(=O)CCC(=O)O)O[C@@H]2O[C@@]3(C)CC[C@H]4[C@H](C)CC[C@@H]1[C@@]24OO3 [ARTESUNATE]
IC50 (Plasmodium falciparum [4]): 0.004 µM | IC50 (Plasmodium falciparum [8]): 0.003 µM

CCN(CC)CCCC(C)Nc1ccnc2cc(Cl)ccc12 (centres undefined) [CHLOROQUINE]
MSD (Plasmodium berghei [9]): 7 days | Activity (Plasmodium berghei [10]): 99.7% | ED50 (Plasmodium berghei [11]): 1.9 mg/kg | ED90 (Plasmodium berghei [11]): 4.2 mg/kg | Activity (Plasmodium berghei [12]): 99.5% | MSD (Plasmodium berghei [13]): 12 days | Activity (Plasmodium berghei [14]): >99.9% | MSD (Plasmodium berghei [15]): 9 days
